Among the data in patent US8063221B2, “Aminoquinolones as GSK-3 inhibitors” (Kyorin Pharmaceutical Co., Ltd., priority 2006, dated 2011) are MIC and IC50 values, retold here.

SMILES strings stand for the structures. In brackets after ≈: the same amount, converted by molar mass.

T1 sequence (P49841 whole entry): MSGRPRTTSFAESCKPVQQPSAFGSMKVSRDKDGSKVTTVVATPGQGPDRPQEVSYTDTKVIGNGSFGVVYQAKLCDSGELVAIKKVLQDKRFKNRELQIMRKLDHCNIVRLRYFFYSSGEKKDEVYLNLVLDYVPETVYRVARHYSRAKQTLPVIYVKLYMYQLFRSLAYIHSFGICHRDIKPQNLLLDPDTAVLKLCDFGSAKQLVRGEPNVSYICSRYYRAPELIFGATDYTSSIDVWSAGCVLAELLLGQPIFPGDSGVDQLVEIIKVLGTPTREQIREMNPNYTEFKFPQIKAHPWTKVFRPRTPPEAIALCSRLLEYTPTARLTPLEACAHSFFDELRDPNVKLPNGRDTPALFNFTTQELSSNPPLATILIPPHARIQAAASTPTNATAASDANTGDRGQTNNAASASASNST

In one assay the test system is S. aureus Smith. Put plainly: Antibacterial activity (MIC), S. aureus. It counts as cell-based. To be noted: Staphylococcus aureus, Table 1; read-out: Antibacterial MIC (μM) S. aureus Smith. The text has this:
(§1) As used herein, a minimum inhibitory concentration (MIC) for bacterial growth assay is the lowest level of a compound needed to cause an inhibition to bacterial growth in culture medium. In certain embodiments, the antibacterial activity of compounds herein, measured as MIC.
(§2) In certain embodiments, GSK3 inhibitors provided herein are substantially free of antibacterial activity or having very low antibacterial activity. The antibacterial activity can be measured by methods known in the art by estimating a minimum inhibitory concentration (MIC) for test compounds. A MIC is the lowest level of a compound needed to cause an inhibition to bacterial growth in a culture medium. […] (Clinical and Laboratory Standards Institute. Methods for Dilution Antimicrobial Susceptibility Tests for Bacteria That Grow Aerobically; Approved Standard-Sixth Edition: CLSI document […]. CLSI, Wayne, Pa. (2003))
(§3) Antibacterial activity for E. coli, ATCC8739 andS. aureus Smith expressed as MIC (μM) is provided as follows: […]
As usually defined, the MIC is the smallest concentration in the dilution series that meets the test's criterion for growth inhibition. Take `COc1c(NCCCOc2ccccc2)c(F)c(N)c2c(=O)c(C(=O)O)cn(C3CC3)c12` [compound 82]: the MIC is 10 to 50 µM (≈ 4.41 to 22.1 µg/mL).

For the molecule `Nc1c(F)c(NCCNc2ccccn2)c(F)c2c1c(=O)ccn2C1CCCC1` [compound 76], the MIC is greater than 50 µM.

Take `Nc1cc(NCCNc2cccc3ccccc23)cc2c1c(=O)ccn2C1CC1` [compound 66]: the MIC is 10 to 50 µM (≈ 3.84 to 19.2 µg/mL).

Consider `Nc1c(F)c(NCCNc2ccccn2)c(F)c2c1c(=O)ccn2CCc1ccccc1` [compound 63], for which the MIC fell in the range of 10 to 50 µM (≈ 4.35 to 21.8 µg/mL).

In the case of `Nc1c(F)c(NCCNc2cccc3ccccc23)c(F)c2c1c(=O)c(C(=O)O)cn2C1CCCC1` [compound 56], the MIC lay in the range of 10 to 50 µM (≈ 4.93 to 24.6 µg/mL).

Staying with this assay, now noted: Staphylococcus aureus, Table 2; S. aureus Smith; read-out: Antimicrobial MIC [μM] S. aureus.
As to `CSc1c(F)c(NCCNc2ccccn2)c(F)c2c1c(=O)c(C(=O)O)cn2C1CC1` [Example 128], the MIC fell in the range of 0.5 to 10 µM (≈ 0.223 to 4.46 µg/mL).

For the molecule `C[C@H]1COc2c(NCCCN3CCCC3=O)c(F)c(N)c3c(=O)c(C(=O)O)cn1c23` [compound 23], the MIC was 0.5 to 10 µM (≈ 0.209 to 4.18 µg/mL).

Take `CC1(C)Cn2cc(C(=O)O)c(=O)c3c(N)c(F)c(NCCCn4ccnc4)c(c32)O1` [compound 58]: the MIC was greater than 50 µM.

Regarding `COc1c(NCCNc2ccccn2)c(F)c(N)c2c(=O)c(C(=O)O)cn(Cc3ccccc3)c12` [Example 130], the MIC lay within 0.5 to 10 µM (≈ 0.239 to 4.77 µg/mL).

For the molecule `CC1(C)COc2c(NCCCn3cnc4ccccc43)c(F)c(N)c3c(=O)c(C(=O)O)cn(c23)C1` [compound 52], the MIC is 0.5 to 10 µM (≈ 0.24 to 4.8 µg/mL).

For `COc1c(OCCNc2ccccn2)c(F)c(N)c2c(=O)c(C(=O)O)cn(C3CC3)c12` [Example 132], the MIC was less than 0.5 µM.

With `CC(C)OCCCNc1c(F)c(N)c2c(=O)c(C(=O)O)cn3c2c1OC[C@@H]3C` [compound 21], the MIC was in the range of 0.5 to 10 µM (≈ 0.197 to 3.93 µg/mL).

Turning to `CC1(C)COc2c(NCCNc3cccc4ccccc34)c(F)c(N)c3c(=O)c(C(=O)O)cn1c23` [compound 36], the MIC was in the range of 10 to 50 µM (≈ 4.77 to 23.8 µg/mL).

On to `CCOC(=O)CCNc1c(F)c(N)c2c(=O)c(C(=O)O)cn(C3CC3)c2c1OC` [Example 122], for which the MIC lay in the range of 0.5 to 10 µM (≈ 0.204 to 4.07 µg/mL).

On to `CC1(C)COc2c(NCCCN3CCCC3=O)c(F)c(N)c3c(=O)c(C(=O)O)cn1c23` [compound 41], for which the MIC is greater than 50 µM.

`Nc1c(F)c(NCCCn2ccnc2)c2c3c1c(=O)c(C(=O)O)cn3CCO2` [compound 9]: the MIC was greater than 50 µM.

Regarding `CC(C)[C@H]1COc2c(NCCNc3ccccn3)c(F)c(N)c3c(=O)c(C(=O)O)cn1c23` [compound 60], the MIC is 10 to 50 µM (≈ 4.41 to 22.1 µg/mL).

The test system of another assay is E. coli, ATCC8739. Put plainly: Antibacterial activity (MIC), E. coli. It counts as cell-based. To be noted: Escherichia coli, ATCC8739, Table 1; E. coli ATCC8739; read-out: Antibacterial MIC (μM) E.Coli.
From the text: as §1, §2, §3
`COc1c(NCCCOc2ccccc2)c(F)c(N)c2c(=O)c(C(=O)O)cn(C3CC3)c12` [compound 82]: the MIC fell in the range of 10 to 50 µM (≈ 4.41 to 22.1 µg/mL).

On to `Nc1c(F)c(NCCNc2ccccn2)c(F)c2c1c(=O)ccn2C1CCCC1` [compound 76], for which the MIC is greater than 50 µM.

Turning to `Nc1cc(NCCNc2cccc3ccccc23)cc2c1c(=O)ccn2C1CC1` [compound 66], the MIC was in the range of 10 to 50 µM (≈ 3.84 to 19.2 µg/mL).

For `Nc1c(F)c(NCCNc2ccccn2)c(F)c2c1c(=O)ccn2CCc1ccccc1` [compound 63], the MIC is 10 to 50 µM (≈ 4.35 to 21.8 µg/mL).

For `Nc1c(F)c(NCCNc2cccc3ccccc23)c(F)c2c1c(=O)c(C(=O)O)cn2C1CCCC1` [compound 56], the MIC fell in the range of 10 to 50 µM (≈ 4.93 to 24.6 µg/mL).

The same assay, now with this note: Escherichia coli, ATCC8739, Table 2; E. coli ATCC8739; read-out: Antimicrobial MIC [μM] E. Coli.
Take `CSc1c(F)c(NCCNc2ccccn2)c(F)c2c1c(=O)c(C(=O)O)cn2C1CC1` [Example 128]: the MIC lay in the range of 0.5 to 10 µM (≈ 0.223 to 4.46 µg/mL).

Consider `C[C@H]1COc2c(NCCCN3CCCC3=O)c(F)c(N)c3c(=O)c(C(=O)O)cn1c23` [compound 23], for which the MIC fell in the range of 0.5 to 10 µM (≈ 0.209 to 4.18 µg/mL).

As to `CC1(C)Cn2cc(C(=O)O)c(=O)c3c(N)c(F)c(NCCCn4ccnc4)c(c32)O1` [compound 58], the MIC was greater than 50 µM.

`C[C@H]1COc2c(NCCCc3ccccc3)c(F)c(N)c3c(=O)c(C(=O)O)cn1c23` [compound 29]: the MIC was in the range of 10 to 50 µM (≈ 4.11 to 20.6 µg/mL).

For the molecule `COc1c(NCCNc2ccccn2)c(F)c(N)c2c(=O)c(C(=O)O)cn(Cc3ccccc3)c12` [Example 130], the MIC is 0.5 to 10 µM (≈ 0.239 to 4.77 µg/mL).

On to `CC1(C)COc2c(NCCCn3cnc4ccccc43)c(F)c(N)c3c(=O)c(C(=O)O)cn(c23)C1` [compound 52], for which the MIC was 0.5 to 10 µM (≈ 0.24 to 4.8 µg/mL).

Take `COc1c(OCCNc2ccccn2)c(F)c(N)c2c(=O)c(C(=O)O)cn(C3CC3)c12` [Example 132]: the MIC fell in the range of 0.5 to 10 µM (≈ 0.214 to 4.28 µg/mL).

`CC(C)OCCCNc1c(F)c(N)c2c(=O)c(C(=O)O)cn3c2c1OC[C@@H]3C` [compound 21]: the MIC is greater than 50 µM.

With `CC1(C)COc2c(NCCNc3cccc4ccccc34)c(F)c(N)c3c(=O)c(C(=O)O)cn1c23` [compound 36], the MIC was 10 to 50 µM (≈ 4.77 to 23.8 µg/mL).

As for `CCOC(=O)CCNc1c(F)c(N)c2c(=O)c(C(=O)O)cn(C3CC3)c2c1OC` [Example 122], the MIC lay within 10 to 50 µM (≈ 4.07 to 20.4 µg/mL).

In the case of `CC1(C)COc2c(NCCCN3CCCC3=O)c(F)c(N)c3c(=O)c(C(=O)O)cn1c23` [compound 41], the MIC is greater than 50 µM.

`Nc1c(F)c(NCCCn2ccnc2)c2c3c1c(=O)c(C(=O)O)cn3CCO2` [compound 9]: the MIC is 10 to 50 µM (≈ 3.87 to 19.4 µg/mL).

Consider `CC(C)[C@H]1COc2c(NCCNc3ccccn3)c(F)c(N)c3c(=O)c(C(=O)O)cn1c23` [compound 60], for which the MIC is 10 to 50 µM (≈ 4.41 to 22.1 µg/mL).

Another assay has as its target T1, recombinant full-length human GSK3β (Homo sapiens, UniProt P49841).
T1 construct: recombinant full-length human GSK3β (Upstate); purchased Upstate
Put plainly: Luciferase-coupled cell-free GSK3β kinase assay. The assay is classed as biochemical. To be noted: Table 1. On the procedure: For compounds in Tables 1 and 2, IC50 (μM) for GSK3β enzyme in cell free assay is provided as follows:
Luciferase-Coupled Protein Kinase Assays
All coupled-luciferase assays are performed by using a brief incubation with firefly luciferase (Promega) after completion of the kinase assay. KinaseGlo Plus is used for reading kinase reactions with ATP>10 μM, KinaseGlo for ATP <10 μM. The assay volume in a 384-well plate for the kinase reaction is 30 microliters.
10-25 ng of recombinant full-length human GSK3β (Upstate) is incubated in the presence or absence of compound at varying concentrations for 1 hour at 30 degrees Celsius in 20 mM MOPS, pH 7.0, 10 mM magnesium acetate, 0.2 mM EDTA, 2 mM EGTA, 30 mM magnesium chloride, 62.5 μM phospho-glycogen synthase peptide-2, 5 μM ATP, 10 mM β-glycerol phosphate, 1 mM sodium orthovanadate and 1 mM dithiothreitol. Proceed to KinaseGlo luciferase reaction (see below).
Following the completion of the kinase reaction an equal volume of KinaseGlo or KinaseGlo Plus luciferase reagent (Promega) is added and the luminescence read using a luminescence plate reader within 5-10 minutes. Compound activity is expressed as % inhibition relative to maximal inhibition observed at the maximal dose and IC50 values then calculated using curve fitting software (GraphPad Prizm).
What is called IC50 is the concentration that gives 50% inhibition. For `COc1c(NCCCOc2ccccc2)c(F)c(N)c2c(=O)c(C(=O)O)cn(C3CC3)c12` [compound 82], the IC50 is greater than 1000 nM.

As for `Nc1c(F)c(NCCNc2ccccn2)c(F)c2c1c(=O)ccn2C1CCCC1` [compound 76], the IC50 was less than 100 nM.

Take `Nc1cc(NCCNc2cccc3ccccc23)cc2c1c(=O)ccn2C1CC1` [compound 66]: the IC50 is less than 100 nM.

In the case of `Nc1c(F)c(NCCNc2ccccn2)c(F)c2c1c(=O)ccn2CCc1ccccc1` [compound 63], the IC50 was 100 to 500 nM.

Turning to `Nc1c(F)c(NCCNc2cccc3ccccc23)c(F)c2c1c(=O)c(C(=O)O)cn2C1CCCC1` [compound 56], the IC50 is less than 100 nM.

Turning to `Nc1c(F)c(NCc2ccc(Cl)cc2)c(F)c2c1c(=O)ccn2C1CC1` [compound 14], the IC50 is greater than 1000 nM.

With `Nc1c(F)c(N2CCN(Cc3ccccc3)CC2)c(F)c2c1c(=O)c(C(=O)O)cn2C1CC1` [compound 22], the concentration for half-maximal inhibition (IC50) is greater than 1000 nM.

For the molecule `CC1COc2c(NCCCOc3ccccc3)c(F)c(N)c3c(=O)c(C(=O)O)cn1c23` (stereo not shown) [compound 88], the IC50 lay within 100 to 500 nM.

Still in this assay, the particulars now being: Table 2.
For `C[C@H]1COc2c(NCCCN3CCCC3=O)c(F)c(N)c3c(=O)c(C(=O)O)cn1c23` [compound 23], the IC50 lay in the range of 100 to 500 nM.

On to `CC1(C)Cn2cc(C(=O)O)c(=O)c3c(N)c(F)c(NCCCn4ccnc4)c(c32)O1` [compound 58], for which the IC50 was 100 to 500 nM.

For the molecule `C[C@H]1COc2c(NCCCc3ccccc3)c(F)c(N)c3c(=O)c(C(=O)O)cn1c23` [compound 29], the IC50 is less than 100 nM.

As for `COc1c(NCCNc2ccccn2)c(F)c(N)c2c(=O)c(C(=O)O)cn(Cc3ccccc3)c12` [Example 130], the IC50 is greater than 1000 nM.

`CC1(C)COc2c(NCCCn3cnc4ccccc43)c(F)c(N)c3c(=O)c(C(=O)O)cn(c23)C1` [compound 52]: the IC50 was 100 to 500 nM.

With `COc1c(OCCNc2ccccn2)c(F)c(N)c2c(=O)c(C(=O)O)cn(C3CC3)c12` [Example 132], the 50% inhibitory concentration (IC50) was greater than 1000 nM.

`CC(C)OCCCNc1c(F)c(N)c2c(=O)c(C(=O)O)cn3c2c1OC[C@@H]3C` [compound 21]: the IC50 lay within 100 to 500 nM.

Consider `CC1(C)COc2c(NCCNc3cccc4ccccc34)c(F)c(N)c3c(=O)c(C(=O)O)cn1c23` [compound 36], for which the IC50 was less than 100 nM.

For `CCOC(=O)CCNc1c(F)c(N)c2c(=O)c(C(=O)O)cn(C3CC3)c2c1OC` [Example 122], the IC50 was in the range of 500 to 1000 nM.

In the case of `CC1(C)COc2c(NCCCN3CCCC3=O)c(F)c(N)c3c(=O)c(C(=O)O)cn1c23` [compound 41], the IC50 is less than 100 nM.

Turning to `Nc1c(F)c(NCCCn2ccnc2)c2c3c1c(=O)c(C(=O)O)cn3CCO2` [compound 9], the IC50 is 500 to 1000 nM.

On to `CC(C)[C@H]1COc2c(NCCNc3ccccn3)c(F)c(N)c3c(=O)c(C(=O)O)cn1c23` [compound 60], for which the IC50 was less than 100 nM.
